Structures can show the parent of a compound that is named as a salt.
Biological target: T1, PLA2 (phospholipase A2) (Rattus norvegicus, UniProt P14423)
T1 construct: from tissue; host or cells: rat platelets
T1 sequence (P14423 22-146): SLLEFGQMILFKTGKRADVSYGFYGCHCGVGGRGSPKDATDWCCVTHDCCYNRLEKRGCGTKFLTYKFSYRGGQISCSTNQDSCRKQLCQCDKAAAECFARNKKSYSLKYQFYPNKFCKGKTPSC
Assay: Phospholipase A2 inhibitory activity (release of free fatty acid from 14C-labelled phosphatidylethanolamine)
Assay type: biochemical
Settings: PLA2 from rat platelets; CaCl2 (3 mM) in Tris-buffer (0.1 M, pH 7.4); 37 °C for 20 minutes
Description: The compounds of the present invention were tested for their Phospholipase A2 inhibitory activity by the following procedure.
1-Palmitoyl-2-[1-^14C]-linoleoyl L-3-Phosphatidylethanolamine (Amersham, Inc., 59 mCi/mmol) were diluted with L-α-phosphatidylethanolamine (Sigma, Co., from […]) [2,000 dpm/nmol], and the dilution was sonicated. The resultant dilution was used as a substrate. The PLA2 (phospholipase A2) which was used in the test was from rat platelets. The PLA2 and the substrate preparation were added to a solution of CaCl2 (3 mM) in Tris-buffer (0.1 M, pH 7.4), and the mixture was allowed to react at 37 °C for 20 minutes. Then, the reaction was terminated by adding 1.25 ml of Dole's reagent to the reaction mixture and stirring immediately the resultant mixture. To the mixture was added 0.5 ml of distilled water and 0.8 ml of n-heptane, and the mixture was stirred, centrifuged, and the supernatant was taken into another tube. To this supernatant were added an additional 0.8 ml of n-heptane and silica gel, and the mixture was stirred, centrifuged, and the supernatant was taken into vials. Toluene cocktail was added to the vials. The amount of free fatty acid released by PLA2 was determined using a liquid scintillation counter.
Inhibitory activity (%) was estimated by the formula: [(DPM value at the addition of the inhibitor - DPM value without PLA2) / (DPM value with only PLA2 - DPM value without PLA2)] × 100.

| SMILES | IC50 [µM] |
| --- | --- |
| COc1c(C)c(O)c(C)c(C)c1C(=O)O [Compound 9] | > 480 |
| COc1ccc(Sc2ccc(OC)c(C(=O)Oc3c(C)c(C)c(C(=O)Oc4c(C)c(C)c(C(=O)O)c(OC)c4C)c(OC)c3C)c2)cc1C(=O)O [Compound 108] | 2.1 |
| COc1ccc(Sc2ccc(OC)c(C(=O)Oc3c(C)c(C)c(C(=O)O)c(OC)c3C)c2)cc1C(=O)Oc1c(C)c(C)c(C(=O)O)c(OC)c1C [Compound 110b, Bis[3-(4'-carboxy-3'-methoxy-2',5',6'-trimethylphenoxycarbonyl)-4-methoxyphenyl] sulfide] | 2.5 |
| COc1c(C)c(OC)c(C(=O)Oc2c(C)c(O)cc(C)c2C(=O)Oc2c(C)c(C)c(C(=O)Oc3c(C)c(C)c(C(=O)O)c(OC)c3C)c(OC)c2C)c(C)c1Oc1ccc(C[C@H](N)C(=O)O)cc1 [Compound 77, [5-[6'-[4''-(4'''-Carboxy-3'''-methoxy-2''',5''',6'''-trimethylphenoxycarbony)-3''-methoxy-2'',5'',6''-trimethylphenoxycarbony]-3'-hydroxy-2',5'-dimethylphenoxycarbony]-2,4-dimethoxy-3,6-dimethylphenyl] [4''''-(2'''''-amino-2'''''-carboxyethyl)phenyl] ether trifluoroacetate] | 0.34 |
| COc1c(C)c(OCc2ccccc2)c(C)c(C)c1C(=O)O [Compound 8] | > 330 |
| COc1c(C)c(OC(=O)c2c(C)c(C)c(OC(=O)/C=C/C(=O)Oc3c(C)c(C)c(C(=O)Oc4c(C)c(C)c(C(=O)O)c(OC)c4C)c(OC)c3C)c(C)c2OC)c(C)c(C)c1C(=O)O [Compound 121, Trans-1,2-bis[4'-(4''-carboxy-3''-methoxy-2'',5'',6''-trimethylphenoxycarbonyl)-3^'-methoxy-2',5',6'-trimethylphenoxycarbony] ethene] | 0.33 |
| CCCCOC(=O)c1cc(Sc2ccc(OC)c(C(=O)Oc3c(C)c(C)c(C(=O)O)c(OC)c3C)c2)ccc1OC [Compound 59, n-Butyl 3-[3'-(4''-carboxy-3''-methoxy-2'',5'',6''-trimethylphenoxycarbonyl)-4'-methoxyphenyl]-thio-6-methoxybenzoate] | 1.45 |
| COc1c(C)c(OC)c(C(=O)O)c(C)c1Cc1c(C)c(C(=O)Oc2c(C)c(C)c(C(=O)Oc3c(C)c(C)c(C(=O)O)c(OC)c3C)c(OC)c2C)c(OC)c(C)c1OC [Compound 48] | 3 |
| Cc1c(O)c(Cc2c(C)c(C(=O)Oc3c(C)c(C)c(C(=O)Oc4c(C)c(C)c(C(=O)O)c(O)c4C)c(O)c3C)c(O)c(C)c2O)c(C)c(C(=O)Oc2c(C)c(C)c(C(=O)Oc3c(C)c(C)c(C(=O)O)c(O)c3C)c(O)c2C)c1O [Compound 62, Bis[5-[4'-(4''-carboxy-3''-hydroxy-2'',5'',6''-trimethylphenoxycarbonyl)-3'-hydroxy-2',5',6'-trimethylphenoxycarbonyl]-2,4-dihydroxy-3,6-dimethylphenyl] methane] | 0.95 |
| COc1ccc(Oc2ccc(OC)c(C(=O)Oc3c(C)c(C)c(C(=O)O)c(OC)c3C)c2)cc1C(=O)Oc1c(C)c(C)c(C(=O)O)c(OC)c1C [Compound 110a, Bis[3-[4'-carboxy-3'-methoxy-2',5',6'-trimethylphenoxycarbonyl)-4-methoxyphenyl] ether] | 3.4 |
| COc1c(C)c(OC)c(C(=O)Oc2c(C)c(C)c(C(=O)O)c(OC)c2C)c(C)c1Cc1c(C)c(C(=O)Oc2c(C)c(C)c(C(=O)O)c(OC)c2C)c(OC)c(C)c1OC [Compound 50] | 4.6 |
| COc1c(C)c(OC(=O)c2c(C)c(C)c(OC(=O)c3cc(=O)cc(C(=O)Oc4c(C)c(C)c(C(=O)Oc5c(C)c(C)c(C(=O)O)c(OC)c5C)c(OC)c4C)o3)c(C)c2OC)c(C)c(C)c1C(=O)O [Compound 54] | 0.88 |

Stronger by IC50, values ahead:

| IC50 [µM] | SMILES |
| --- | --- |
| 0.16 | COc1c(C)c(OC(=O)c2c(C)c(C)c(OC(=O)c3cccc(C(=O)Oc4c(C)c(C)c(C(=O)Oc5c(C)c(C)c(C(=O)O)c(OC)c5C)c(OC)c4C)c3)c(C)c2OC)c(C)c(C)c1C(=O)O [Compound 52] |
| 0.049 | COc1ccc(Sc2ccc(OC)c(C(=O)Oc3c(C)c(C)c(C(=O)Oc4c(C)c(C)c(C(=O)O)c(OC)c4C)c(OC)c3C)c2)cc1C(=O)Oc1c(C)c(C)c(C(=O)Oc2c(C)c(C)c(C(=O)O)c(OC)c2C)c(OC)c1C [Compound 104a, Bis[3-[4'-[(4''-carboxy-3''-methoxy-2'',5'',6''-trimethyl)phenoxycarbony]-3'-methoxy-2',5',6'-trimethyl]-phenoxycarbony-4-methoxyphenyl] sulfide] |
| 0.04 | COc1c(C)c(OC(=O)c2c(C)c(C)c(OC(=O)CCC(=O)Oc3c(C)c(C)c(C(=O)Oc4c(C)c(C)c(C(=O)O)c(OC)c4C)c(OC)c3C)c(C)c2OC)c(C)c(C)c1C(=O)O [Compound 122, 1,2-Bis[4'-[4''-carboxy-3''-methoxy-2'',5'',6''-trimethylphenoxycarbonyl)-3'-methoxy-2',5',6'-trimethylphenoxycarbony] ethane] |
| 0.05 | COc1ccc(S(=O)(=O)c2ccc(OC)c(C(=O)Oc3c(C)c(C)c(C(=O)Oc4c(C)c(C)c(C(=O)O)c(OC)c4C)c(OC)c3C)c2)cc1C(=O)Oc1c(C)c(C)c(C(=O)Oc2c(C)c(C)c(C(=O)O)c(OC)c2C)c(OC)c1C [Compound 104b, Bis[3-[4'-[(4''-carboxy-3''-methoxy-2'',5'',6''-trimethyl)phenoxycarbony]-3'-methoxy-2',5',6'-trimethyl]-phenoxycarbony-4-methoxyphenyl] sulfone] |
| 0.12 | COc1ccc([S+]([O-])c2ccc(OC)c(C(=O)Oc3c(C)c(C)c(C(=O)Oc4c(C)c(C)c(C(=O)O)c(OC)c4C)c(OC)c3C)c2)cc1C(=O)Oc1c(C)c(C)c(C(=O)Oc2c(C)c(C)c(C(=O)O)c(OC)c2C)c(OC)c1C [Compound 104c, Bis[3-[4'-[(4''-carboxy-3''-methoxy-2'',5'',6''-trimethyl)phenoxycarbony]-3'-methoxy-2',5',6'-trimethyl]-phenoxycarbony-4-methoxyphenyl] sulfoxide] |
| 0.042 | COc1ccc(Oc2ccc(OC)c(C(=O)Oc3c(C)c(C)c(C(=O)Oc4c(C)c(C)c(C(=O)O)c(OC)c4C)c(OC)c3C)c2)cc1C(=O)Oc1c(C)c(C)c(C(=O)Oc2c(C)c(C)c(C(=O)O)c(OC)c2C)c(OC)c1C [Compound 120] |
| 0.035 | COc1cc(OC)c(C(=O)Oc2c(C)c(C)c(C(=O)Oc3c(C)c(C)c(C(=O)O)c(OC)c3C)c(OC)c2C)cc1Oc1cc(C)c(OC)c(C(=O)Oc2c(C)c(C)c(C(=O)Oc3c(C)c(C)c(C(=O)O)c(OC)c3C)c(OC)c2C)c1 [Compound 56] |
| 0.07 | COc1c(C)c(OC)c(C(=O)Oc2cc(C)c(C(=O)Oc3c(C)c(C)c(C(=O)Oc4c(C)c(C)c(C(=O)O)c(OC)c4C)c(OC)c3C)c(O)c2C)c(C)c1Oc1ccc(C[C@H](N)C(=O)O)cc1 [Compound 74, [5-[4'-[4''-(4'''-Carboxy-3'''-methoxy-2''',5''',6'''-trimethylphenoxycarbony)-3''-methoxy-2'',5'',6''-trimethylphenoxycarbony]-3'-hydroxy-2',5'-dimethylphenoxycarbony]-2,4-dimethoxy-3,6-dimethylphenyl] [4''''-(2'''''-amino-2'''''-carboxyethyl)phenyl] ether trifluoroacetate] |
| 0.13 | COc1c(C)c(OC)c(C(=O)Oc2c(C)c(C)c(C(=O)Oc3c(C)c(C)c(C(=O)O)c(OC)c3C)c(OC)c2C)c(C)c1Cc1c(C)c(C(=O)Oc2c(C)c(C)c(C(=O)Oc3c(C)c(C)c(C(=O)O)c(OC)c3C)c(OC)c2C)c(OC)c(C)c1OC [Compound 44, Bis[5-[4'-(4''-carboxy-3''-methoxy-2'',5'',6''-trimethylphenoxycarbonyl)-3'-methoxy-2',5',6',-trimethylphenoxycarbonyl]-2,4-dimethoxy-3,6-dimethylphenyl] methane] |
